# Laboratory results reported in patent US20120259413A1, “DEVICES, COMPOSITIONS AND METHODS UTILIZING EP4 AND EP2 RECEPTOR AGONISTS FOR PREVENTING, REDUCING OR TREATING CAPSULAR CONTRACTURE” (ALLERGAN, INC., priority 2011, published 2012).
# Tests used:
# [1] = system: cultured human skin fibroblasts; experiment: TGF-β1-induced myofibroblast formation (α-SMA Western blot); assay type: cell-based; details: 10 or 100 nM with TGF-β1 2 ng/ml, 72 hours
# Procedure: EP4 and EP2 Receptor Agonists Inhibit TGF-β1-Induced Myofibroblasts Formation
# Adult skin fibroblasts were derived from normal skin of a person, purchased from ATCC(CRL-7346). Cells were cultured in DMEM medium supplemented with 10% fetal bovine serum and 1% streptomycin and penicillin in incubators at 37° C. and 5% CO2. Cells were seeded in 10 cm dishes at 1×10^6 cells/dish. When the cells became 80% confluent, they were cultured in serum-free medium for 48 hrs after washing away residual serum with PBS. Vehicle, Compound I (EP4 receptor agonist), or Compound II (EP2 receptor agonist), together with human recombinant TGF-β1 (2 ng/ml), were added to culture medium at 0, 10 or 100 nM final concentration, respectively. Compound I or 2 was first dissolved in DMSO, the final DMSO concentration was 0.1%. Cell lysates were collected at 72 hours after treatments, respectively. Proteins were quantified and resolved on 4-10% SDS-PAGE. Then the proteins were transferred to membrane by electrophoresis. The membranes were blocked with mouse-anti-alpha smooth muscle actin (α-SMA) antibody, and a second antibody against mouse-IgG conjugated with AP (purchased from Signal Transduction). Shown in FIG. 1A is a representative image of Western Blot myofibroblast marker expression under the treatment of EP4 or EP2 receptor agonists in combination with TGF-β1 in cultured human skin fibroblasts.
# [2] = molecular target: T1, human recombinant EP2 receptor (HEK-293 cells) (Homo sapiens, UniProt P43116); experiment: AlphaScreen cAMP assay, EP2 receptor; assay type: cell-based; details: read-out: cAMP enhancement EC50
# T1 construct: expressed in transfected cells
# T1 sequence (P43116 whole entry): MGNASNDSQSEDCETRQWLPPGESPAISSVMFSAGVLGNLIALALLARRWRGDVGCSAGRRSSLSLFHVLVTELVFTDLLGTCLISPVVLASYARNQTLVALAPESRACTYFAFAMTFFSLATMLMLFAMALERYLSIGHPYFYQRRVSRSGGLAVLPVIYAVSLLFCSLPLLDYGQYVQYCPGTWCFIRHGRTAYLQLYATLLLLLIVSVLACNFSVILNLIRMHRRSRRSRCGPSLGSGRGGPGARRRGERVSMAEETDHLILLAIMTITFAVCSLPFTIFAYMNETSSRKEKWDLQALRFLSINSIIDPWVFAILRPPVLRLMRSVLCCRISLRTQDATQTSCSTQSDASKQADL
# Procedure: (§1) cAMP assay was carried out using AlphaScreen cAMP assay kits (PerkinElmer, Boston, Mass.) following manufacturer instructions. Intracellular Ca^2+ was monitored using a FLIPR Tetra system and assay kits from Molecular Devices following manufacturer instructions. All assays were carried out in HEK-293 cells heterologously and stably expressing each of the eight human recombinant prostanoid receptors. For Ca^2+ signals, hEP2, hEP4, hDP were co-expressed with a chimeric G protein, Gqs, which converts Gs signal to Gq Ca^2+ signal, and hEP3 with a chimeric G protein, Gqi. Each receptor-selective agonist induced Ca^2+ signals with sub-nanomolar or nanomolar EC50 values. Subtype-selective compounds used here are PGE2 for EP1, EP2, EP3 and EP4; BW245C for DP; 17-phenyl PGF2α for FP, carbacyclin for IP and U-46619 for TP.
# (§2) Human Recombinant EP1, EP2, EP3, EP4, FP, TP, IP and DP Receptors: Stable Transfectants
# (§3) Plasmids encoding the human EP1, EP2, EP3, EP4, FP, TP, IP and DP receptors are prepared by cloning the respective coding sequences into the eukaryotic expression vector pCEP4 (Invitrogen). […] Selection of stable transfectants is achieved with 200 μg ml^−1 hygromycin, the optimal concentration being determined by previous hygromycin kill curve studies. […]
# hEP2 [3] = molecular target: T2, hEP2 (Homo sapiens, UniProt P43116); experiment: Radioligand binding assay ([3H]PGE2 competition), EP2 receptor
# T2 construct: expressed in transfected cells
# T2 sequence (P43116 whole entry): as above
# Procedure: (§4) General Protocol for Radioligand Binding Assays and cAMP assays:
# (§5) Radioligand binding studies on plasma membrane fractions prepared from cells** are performed as follows. Cells washed with TME buffer are scraped from the bottom of the flasks and homogenized for 30 sec using a Brinkman PT 10/35 polytron. TME buffer is added as necessary to achieve a 40 ml volume in the centrifuge tubes. TME is comprised of 50 mM TRIS base, 10 mM MgCl2, 1 mM EDTA; pH 7.4 is achieved by adding 1 N HCl. The cell homogenate is centrifuged at 19,000 rpm for 20-25 min at 4° C. using a Beckman Ti-60 or Tt-70 rotor. The pellet is then re-suspended in TME buffer to provide a final protein concentration of 1 mg/ml, as determined by Bio-Rad assay. Radioligand binding assays are performed in a 100 μl or 200 μl volume.
# (§6) The binding of [^3H] PGE2 (specific activity 165 Ci/mmol) is determined in duplicate and in at least 3 separate experiments. […] PGE2 and non-specific binding is determined with 10^−5 M unlabelled PGE2. […]
# as §3
# hEP2 [4] = molecular target: T2, hEP2; experiment: FLIPR Ca2+ signal assay, hEP2 co-expressed with Gqs; assay type: cell-based; details: EP2 receptor
# Procedure: as §1, §2, §3
# [5] = molecular target: T3, human recombinant EP4 receptor (Homo sapiens, UniProt P35408); experiment: Radioligand binding assay ([3H]PGE2 competition), EP4 receptor
# T3 construct: expressed in transfected cells
# T3 sequence (P35408 whole entry): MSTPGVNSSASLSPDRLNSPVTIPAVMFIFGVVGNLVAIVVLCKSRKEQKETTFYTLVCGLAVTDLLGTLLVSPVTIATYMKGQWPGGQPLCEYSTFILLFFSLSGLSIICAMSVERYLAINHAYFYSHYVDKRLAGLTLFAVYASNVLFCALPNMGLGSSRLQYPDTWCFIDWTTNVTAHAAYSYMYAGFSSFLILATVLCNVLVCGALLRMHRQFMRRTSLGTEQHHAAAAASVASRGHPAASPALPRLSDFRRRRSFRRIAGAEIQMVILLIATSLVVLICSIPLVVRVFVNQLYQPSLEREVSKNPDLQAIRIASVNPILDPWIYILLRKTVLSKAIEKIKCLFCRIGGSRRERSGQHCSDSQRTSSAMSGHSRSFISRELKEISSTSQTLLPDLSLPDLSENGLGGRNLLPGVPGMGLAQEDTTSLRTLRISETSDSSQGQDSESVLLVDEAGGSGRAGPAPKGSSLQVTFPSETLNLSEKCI
# Procedure: as §4, §5, §6, §3
# VEGF = VEGF expression at wound sites (Western blot); assay type: in vivo, Sprague Dawley rats; details: wound tissue, transiently at day-7
# Procedure: (§7) 2 cm long incisional full thickness skin wounds were made on the back of Sprague Dawley rats. Wounds were treated with vehicle or EP4 agonist (compound I). The wound tissue was biopsied at day-7 or day-14 post-surgery. The samples were homogenized in protein extraction buffer after being frozen in liquid nitrogen. The protein concentrations were measured. Then the samples were loaded into 4-10% SDS-Pages to resolve the proteins. After electrophoresis, the proteins were transferred onto nitrocellular membranes. The membranes were blocked with anti-VEGF, anti-bFGF or anti-beta-actin, respectively. […] It is reported that bFGF prevents scar formation and reduces hypertrophic and burn-induced skin scars. VEGF expression was boosted by 25% transiently at day-7, which may contribute to angiogenesis at wound site and facilitate scar-free healing.
# incisional skin wounds [6] = experiment: Incisional skin wound study, 14 day pilot, topical treatment; assay type: in vivo, Sprague-Dawley rats
# Procedure: Sprague-Dawley rats weighing 180-200 grams were anesthetized with isoflourane. After shaving, a 2-cm long incision was made, reaching the deep fascia on the back skin of rats under sterile conditions. The wounds were immediately closed with 4-0 sutures. A 14 day pilot study was carried out. The animals were topically treated with vehicle or Compound 1 at 0.004% twice daily. The vehicle contained ethanol 30%, propylene glycol 12%, dipropylene glycol 5%, benzyl alcohol 5%, glycerol 3% and normal saline 45%. The wound was photographed daily; biopsy was performed at 2, 3, 7 and 14 days post-surgery for histopathology and molecular biology analysis.
# (§8) The wound tissue was biopsied for histopathology on day 3, 14 and 70. To observe the skin wound, paraffin-embedded wound sections were made. Regular H&E staining was carried out in comparison with Masson trichrome and/or Picosirus red to visualize the collagen fibers. To monitor myofibroblasts in skin wound, the sections were immunohistochemically stained to identify alpha-smooth muscle actin. To assess wound appearance, all the scar photos were mixed together by the end of each study. The scar severity was scored on a scale of 0 to 10, with 0 being invisible, 1 the minimal and 10 the worst. Each scar was divided into 4 regions, separated by suture sites; each quarter was scored independently; the mean of the 4 part scores was recorded as the gross score of each wound.
# [7] = molecular target: T4, human recombinant EP4 receptor (HEK-293 cells) (Homo sapiens, UniProt P35408); experiment: AlphaScreen cAMP assay, EP4 receptor; assay type: cell-based; details: read-out: EC50 for increased cAMP production
# T4 construct: expressed in transfected cells
# T4 sequence (P35408 whole entry): as above
# Procedure: as §1, §2, §3
# hEP4/Gqs = molecular target: T5, hEP4/Gqs (Homo sapiens, UniProt P35408); experiment: FLIPR Ca2+ signal assay, hEP4/Gqs; assay type: cell-based
# T5 construct: expressed in transfected cells
# T5 sequence (P35408 whole entry): as above
# Procedure: as §1, §2, §3
# incisional skin wounds [8] = experiment: Incisional skin wound study comparing Compound I and TGF-β3; assay type: in vivo, rats; details: for number of neutrophils counted in three sections: 3 days post-surgery, H&E, n=5, vehicle 60.6±30; for macroscopic surface appearance of wound sites / abnormal regions of dense, red, fine parallel fibers in wound gaps: 70 days post-surgery; for abnormal regions of dense, red, fine parallel fibers in wound gaps: Picrosirius red; for widths of the abnormal structured dermis regions versus vehicle: day 14, Masson trichrome; for gap width in-between the normal fibrils versus vehicle / collagen fibrils at wound sites under polarized light: day 14, Picrosirius red; for gap width in-between the normal fibrils versus vehicle: p<0.05; for collagen fibrils at wound sites under polarized light: yellow type I, green type III collagen
# Procedure: A similar skin wound study was also performed comparing the effects of Compound I and TGF-β3. In this study, intradermal injections of Compound I at 0.004%, TGF-β3 at 100 ng/200 μl or vehicle were given right before closing the wounds. Afterward, TGF-β3 was injected two more times, on day 1 and 2, and Compound I and vehicle were topically applied twice a day for the duration of the study. The vehicle was PBS with 0.1% BSA and 4 mM HCl in a total volume of 200 μl for injection. Skin wounds were imaged on day 3, 7, 14, 35 and 70.
# as §8
# bFGF = bFGF expression at wound sites (Western blot); assay type: in vivo, Sprague Dawley rats; details: wound tissue, day-7 and day-14
# Procedure: as §7
# [9] = 14 days post-surgery, Masson Trichrome
compound,measurement,setting,value
CCCCC[C@H](O)c1ccc(N2C(=O)CC[C@@H]2CCCc2ccc(C(=O)O)s2)cc1 [Compound II],TGF-β1-up-regulated expression of α-SMA,[1],dramatically ameliorated
same,EC50,[2],0.19 nM
same,Ki,hEP2 [3],21 nM
same,EC50,hEP2 [4],6.7 nM
CC1(C)C(=O)[C@H](C/C=C\CCCC(=O)O)[C@@H](/C=C/[C@H](O)CCc2sc3ccccc3c2Cl)[C@@H]1O [Compound I],TGF-β1-up-regulated expression of α-SMA,[1],dramatically ameliorated
same,Ki,[5],6.7 ± 0.7 nM
same,boost of VEGF expression,VEGF,25%
same,epidermal thickness of vehicle-treated skin relative to Compound I treated epidermis,incisional skin wounds [6]; 7 days post-skin incision,3 times
same,thickness of epidermal layer of treated skin,incisional skin wounds [6]; 7 days post-skin incision,close to the nearby normal epidermis
same,gross skin scar appearance versus vehicle-treated animals,incisional skin wounds [6]; 14 days post-surgery,smaller and softer skin scar
same,scar width at the superficial region,incisional skin wounds [6]; [9],only a tendency to decrease
same,scar width in the middle and bottom parts of scars,incisional skin wounds [6]; [9],significantly reduced
same,"overall size of epidermal defects, vehicle-treated wounds compared with Compound I treated wounds",incisional skin wounds [6]; day 3,two times larger
same,skin wound samples with closed epidermis filled with keratinocytes,"incisional skin wounds [6]; day 3, 0.004% topical twice daily",80%
same,number of myofibroblasts (α-SMA-positive cells),"incisional skin wounds [6]; day 3 samples, vehicle control 38±6.15",25.8±7.45 /3 sections
same,polymorphonuclear cell infiltration at wound sites,incisional skin wounds [6]; days 2 and 3,significantly reduced
same,EC50,[7],0.25 ± 0.03 nM
same,EC50,hEP4/Gqs,0.11 ± 0.05 nM
same,number of neutrophils counted in three sections,incisional skin wounds [8],31.4±8
same,macroscopic surface appearance of wound sites,incisional skin wounds [8],wound sites were not even detectable
same,"abnormal regions of dense, red, fine parallel fibers in wound gaps",incisional skin wounds [8],largely absent
same,widths of the abnormal structured dermis regions versus vehicle,incisional skin wounds [8]; p<0.01-0.05,significantly smaller
same,gap width in-between the normal fibrils versus vehicle,incisional skin wounds [8],significantly narrower
same,collagen fibrils at wound sites under polarized light,incisional skin wounds [8],large yellow-stained collagen bundles almost crossing over the entire wound sites
same,size of residual scar regions versus vehicle,"incisional skin wounds [8]; day 70, Masson trichrome",remarkably smaller
same,effect on residual scar size compared with TGF-β3,"incisional skin wounds [8]; day 70, Masson trichrome, p<0.01-0.05",more noticeable than TGF-β3
same,enhancement of bFGF expression,bFGF,up to 60%
"TGF-β3: a leading treatment for wounds, reportedly reducing skin scar in both animals and human; comparator",number of neutrophils counted in three sections,incisional skin wounds [8],53.8±17
same,macroscopic surface appearance of wound sites,incisional skin wounds [8],still showed traces of wounds
same,"abnormal regions of dense, red, fine parallel fibers in wound gaps",incisional skin wounds [8],largely absent
same,widths of the abnormal structured dermis regions versus vehicle,incisional skin wounds [8]; p<0.01-0.05,significantly smaller
same,gap width in-between the normal fibrils versus vehicle,incisional skin wounds [8],significantly narrower
same,collagen fibrils at wound sites under polarized light,incisional skin wounds [8],some green fibers at the bottom of the wounds
same,size of residual scar regions versus vehicle,"incisional skin wounds [8]; day 70, Masson trichrome",remarkably smaller
